According to US20070259928A1, “Medicinal Composition for Treating Diabetes” (priority 2004, published 2007):

Experiments:
[1] = test system: Zucker diabetic fatty (ZDF) rats; test: Test Example 1: glycosylated hemoglobin ratio after 6 weeks of repeated, timed administration of Compound A and metformin; format: in vivo, rat; details: for glycosylated hemoglobin ratio vs control group: 100-150 mg/kg each once daily
Experimental: Eleven-week old Zucker diabetic fatty (ZDF) rats, that spontaneously developed diabetes mellitus, were grouped into 3 groups (7 rats per group). Feeding was limited to from 17:00 to 9:00, and Compound A and metformin (purchased from Sigma Chemical Co., Ltd.) were repeatedly administered for 6 weeks. Doses of Compound A and metformin were 100-150 mg/kg each once daily, and administered at 9:00 AM (9:00) or 4:00 PM (16:00). In the group administered Compound A at 9:00 AM, metformin was administered at 4:00 PM (AM-Compound A/PM-metformin administered group; Group A), and in the group administered metformin at 9:00 AM, Compound-A was administered at 4:00 PM (AM-metformin/PM-Compound A administered group; Group B). The dose of each compound per day in both groups was fixed at the same. Vehicle alone was administered to the remaining group (control group) twice a day. After repeated administration of the compounds for 6 weeks, blood sample was collected from the tail vein of each rat, and ratios of glycosylated hemoglobin levels in erythrocytes were determined by DCA2000 manufactured by Bayer Medical Ltd. Glycosylated hemoglobin is non-enzymatically formed by binding of glucose to hemoglobin, and the ratio of glycosylated hemoglobin is increased by sustained hyperglycemia. Thus the glycosylated hemoglobin ratio is widely used as an indicator of a long-term therapy (or control of blood glucose levels) in patients with diabetes mellitus. The average and standard error of the glycosylated hemoglobin ratio determined in each group were calculated and are shown in FIG. 1.

Goto-Kakizaki (GK) rats = test: Test Example 2: blood glucose lowering rate 4 hours after oral Compound A in fasted and non-fasted rats; format: in vivo, rat; details: 30 mg/kg oral
Experimental: Thirty-six-week old Goto-Kakizaki (GK) rats (purchased from Charles River Japan, Inc.), that spontaneously developed diabetes mellitus, were grouped into 4 groups such as “non-fasting control group”, “non-fasting and Compound A administered group”, “fasting control group”, and “fasting and Compound A administered group” (6 rats per group).
In Compound A administered groups, Compound A (30 mg/kg) was orally administered, and vehicle alone was administered to two control groups. In addition, rats in two fasting groups were fasted from one day before oral administration of Compound A, and rats in two non-fasting groups were fasted immediately after Compound A was administered [the rats were allowed to take food pellets (FR2, manufactured by Funabashi Farm Co., Ltd.) ad libitum until fasting was started]. Blood sample was collected from the tail vein immediately before and 4 hours after oral administration of Compound A. Blood glucose level was determined by electric potential measurement method based on glucose oxidase immobilized electrode using Glucoloader GXT (A&T Corp.). The blood glucose lowering rate (%) at 4 hours after administration of Compound A against the blood glucose level before administration was calculated in individual rats according to the following equation, and the average blood glucose lowering rate and its standard error in each group are summarized in FIG. 2. [Blood glucose lowering rate(%)]=100×([…])/[blood glucose level before administration]

## CCOC(=O)[C@H](C)NP(=O)(N[C@@H](C)C(=O)OCC)c1ccc(-c2nc(N)sc2CC(C)C)o1 [Compound A, 2-amino-5-isobutyl-4-{2-[5-(N,N′-bis((S)-1-ethoxycarbonyl)ethyl)phosphonamido]furanyl}thiazole]
[1]; AM-metformin/PM-Compound A compared with AM-Compound A/PM-metformin, same daily doses, p=0.0330, Tukey test
  glycosylated hemoglobin ratio, Group B vs Group A: improved diabetes mellitus more remarkably
[1]; Group A: Compound A at 9:00 AM, metformin at 4:00 PM, p=0.0749, Tukey test
  glycosylated hemoglobin ratio vs control group: not significantly different from that in the control group
[1]; Group B: metformin at 9:00 AM, Compound A at 4:00 PM, p=0.0002, Tukey test
  glycosylated hemoglobin ratio vs control group: significantly lower than that in the control group
Goto-Kakizaki (GK) rats; GK rats fasted from one day before dosing, p=0.0236, t-test
  blood glucose lowering rate at 4 hours after administration vs corresponding control group: significantly reduced
Goto-Kakizaki (GK) rats; GK rats, both groups given Compound A, p=0.0158, t-test
  blood glucose lowering rate at 4 hours, fasting group vs non-fasting group: significantly lower
Goto-Kakizaki (GK) rats; non-fasting GK rats, p=0.0196, t-test
  blood glucose lowering rate at 4 hours after administration vs corresponding control group: significantly reduced
